{
  "source": "patent US4322411A",
  "about": "“Anti-inflammatory nucleosides” (Burroughs Wellcome Co., priority 1980, dated 1982)",
  "key": {"[1]": {"system": "carrageenan pleurisy (3 hour pleural exudate volume)", "assay": "Duration of action of anti-inflammatory activity (Carrageenan Pleurisy Assay)", "type": "in vivo, rat", "details": "for duration of action (time of drug administration prior to carrageenan injection at which inhibition of 3 hour pleural exudate volume declined to 40%): single oral pretreating dose", "description": "Following the procedure previously described by Vinegar et al. in Proc. Soc. Exp. Biol. Med., 143, 711 (1973) and recently modified (Vinegar et al., Eur. J. Rheum. Inflam. 1, 204 (1978)) the acute anti-inflammatory activity of 3-deazaadenosine was compared with that of known anti-inflammatory drugs. The average 3 hr exudate volume for each drug-treated group was determined and the % inhibition relative to solvent-fed control animals calculated, the ED50 (mg/kg of body wt) being the dose required to reduce the 3 hr exudate volume by 50%. There were 5 animals in each drug-treated group and the control group.\nDuration of action of anti-inflammatory activity of 3-deazaadenosine\nBy means of the Carrageenan Pleurisy Assay of Example 1 the duration of action of the test compounds after a single oral pretreating dose was determined. For 3-deazaadenosine the effect lasted for 14.9 hours at 6 mg/kg (p.o.) whilst for aspirin (150 mg/kg p.o.) and acetaminophen (220 mg/kg p.o.) the effect lasted […] and 2 hours, respectively. This value represents the time (hours) of drug administration prior to the injection of carrageenan in which the inhibition of the 3 hour pleural exudate volume declined to 40%."}, "liver": {"system": "liver", "assay": "Liver damage in animal models", "type": "in vivo", "details": "in the animal models used"}, "[2]": {"system": "carrageenan pleurisy (3 hr exudate volume)", "assay": "Local anti-inflammatory activity: Carrageenan Pleurisy Assay (CPA), intrapleural", "type": "in vivo, rat", "details": "3 hr Vol", "description": "Local Anti-Inflammatory Activity of 3-Deazaadenosine: Carrageenan Pleurisy Assay (CPA)\nFollowing the procedure described by Vinegar et al., Eur. J. Rheum. Inflam. […] There were 5 animals in each drug-treated group and the control group."}, "[3]": {"system": "developing adjuvant arthritis", "assay": "Developing adjuvant arthritis", "type": "in vivo, rat", "details": "for ED50: Rattus norvegicus, po, 384 h, read-out: Developing Arthritis ED50 on Day 16", "description": "(§1) There were 5 animals in each drug-treated group. For developing adjuvant arthritis the drugs were administered in the diet from day 1 to day 16. For established adjuvant arthritis the drugs were administered from day 21 to day 42."}, "[4]": {"system": "established adjuvant arthritis", "assay": "Established adjuvant arthritis", "type": "in vivo, rat", "details": "for ED25: Rattus norvegicus, po, 1008 h, read-out: Established Arthritis ED25 on Day 42", "description": "as §1"}, "Antipyretic activity": {"assay": "Antipyretic activity", "details": "in vivo"}, "lipoxygenase pathway": {"system": "lipoxygenase pathway", "assay": "Inhibition of prostaglandin metabolism in vitro, lipoxygenase pathway", "type": "biochemical"}, "cyclooxygenase pathway": {"system": "cyclooxygenase pathway", "assay": "Inhibition of prostaglandin metabolism in vitro, cyclooxygenase pathway", "type": "biochemical"}, "Half life": {"assay": "Half life", "details": "in vivo"}, "Therapeutic index": {"assay": "Therapeutic index", "details": "in vivo"}, "[5]": {"assay": "Side effects (gastric damage, platelet aggregation, steroid side effects)"}, "immune response": {"system": "immune response", "details": "in vivo; cited from earlier work"}, "inflammation": {"system": "inflammation", "assay": "Anti-inflammatory effectiveness by route", "type": "in vivo", "details": "result in words"}, "Water solubility": {"assay": "Water solubility", "type": "physicochemical"}, "Analgesic activity": {"assay": "Analgesic activity", "details": "in vivo"}, "[6]": {"details": "in vivo; cited from earlier work"}},
  "note": "Read-outs that look alike come from different tables or passages of the source.",
  "data": [
    {"smiles": "CC(=O)Nc1ccc(O)cc1", "note": "[acetaminophen, reference compound]", "values": [
      {"measurement": "duration of action (time of drug administration prior to carrageenan injection at which inhibition of 3 hour pleural exudate volume declined to 40%)", "setting": "[1]; 220 mg/kg p.o.", "value": 2, "unit": "h"},
      {"measurement": "liver damage", "setting": "liver", "value": "cause liver damage"}
    ]},
    {"smiles": "CC(=O)Oc1ccccc1C(=O)O", "note": "[Aspirin, reference compound]", "values": [
      {"measurement": "duration of action (time of drug administration prior to carrageenan injection at which inhibition of 3 hour pleural exudate volume declined to 40%)", "setting": "[1]; 150 mg/kg p.o.", "value": 35, "unit": "h"},
      {"measurement": "ED50", "setting": "[2]", "value": 0.04, "unit": "mg/rat"},
      {"measurement": "ED50", "setting": "[3]", "value": "150 ± 53.1", "unit": "mg/kg"},
      {"measurement": "ED25", "setting": "[4]", "value": "< 150", "unit": "mg/kg/day"}
    ]},
    {"smiles": "C[C@]12C=CC(=O)C=C1CC[C@@H]1[C@@H]2[C@@H](O)C[C@@]2(C)[C@H]1CC[C@]2(O)C(=O)CO", "note": "[Prednisolone, reference compound]", "values": [
      {"measurement": "ED50", "setting": "[3]", "value": 1, "unit": "mg/kg"},
      {"measurement": "ED25", "setting": "[4]", "value": 0.2, "unit": "mg/kg/day"}
    ]},
    {"smiles": "C[C@]12CCC(=O)C=C1CC[C@@H]1[C@@H]2[C@@H](O)C[C@@]2(C)[C@H]1CC[C@]2(O)C(=O)CO", "note": "[Hydrocortisone]", "values": [
      {"measurement": "ED50", "setting": "[2]", "value": "< 0.1", "unit": "mg/rat"}
    ]},
    {"smiles": "Nc1nccc2c1ncn2[C@@H]1O[C@H](CO)[C@@H](O)[C@H]1O", "note": "[3-Deazaadenosine, 4-amino-1-β-D-ribofuranosyl-1H-imidazo[4,5-c]-pyridine]", "values": [
      {"measurement": "duration of action (time of drug administration prior to carrageenan injection at which inhibition of 3 hour pleural exudate volume declined to 40%)", "setting": "[1]; 6 mg/kg p.o.", "value": 14.9, "unit": "h"},
      {"measurement": "duration of action", "setting": "[1]; general statement, no dose given", "value": "about 15 hours"},
      {"measurement": "antipyretic activity", "setting": "Antipyretic activity", "value": "not antipyretic"},
      {"measurement": "inhibition of prostaglandin metabolism via lipoxygenase pathway", "setting": "lipoxygenase pathway", "value": "does not inhibit"},
      {"measurement": "inhibition of prostaglandin metabolism via cyclooxygenase pathway", "setting": "cyclooxygenase pathway", "value": "does not inhibit"},
      {"measurement": "half life", "setting": "Half life", "value": "short"},
      {"measurement": "therapeutic index", "setting": "Therapeutic index", "value": "high"},
      {"measurement": "ED50", "setting": "[2]", "value": 0.05, "unit": "mg/rat"},
      {"measurement": "side effects of the anti-inflammatory steroids", "setting": "[5]", "value": "free of the side effects of the anti-inflammatory steroids"},
      {"measurement": "side effects associated with prostaglandin inhibitors (gastric damage, inhibition of platelet aggregation)", "setting": "[5]; inferred from lack of inhibition of prostaglandin metabolism", "value": "free of the side effects"},
      {"measurement": "dose required for immunesuppression", "setting": "immune response", "value": "more than 30 mg/kg"},
      {"measurement": "anti-inflammatory effectiveness by route", "setting": "inflammation", "value": "effective orally, systemically and locally"},
      {"measurement": "water solubility", "setting": "Water solubility", "value": "high"},
      {"measurement": "ED50", "setting": "[3]; in diet from day 1 to day 16", "value": "8 ± 2.8", "unit": "mg/kg"},
      {"measurement": "inhibition of developing adjuvant arthritis", "setting": "[3]; result in words", "value": "inhibit both developing and established adjuvant arthritis"},
      {"measurement": "ED25", "setting": "[4]; from day 21 to day 42, parentheses indicate an approximate value", "value": "~18", "unit": "mg/kg/day"},
      {"measurement": "inhibition of established adjuvant arthritis", "setting": "[4]; result in words", "value": "inhibit both developing and established adjuvant arthritis"},
      {"measurement": "analgesic activity per se", "setting": "Analgesic activity", "value": "has not analgesic activity per se"},
      {"measurement": "dose required for antiviral activity", "setting": "[6]", "value": "100-200 mg/kg per day"},
      {"measurement": "liver damage", "setting": "liver", "value": "does not cause liver damage"}
    ]}
  ]
}
